{
  "source": "patent US20070160725A1",
  "about": "“Use of extracts and compounds of allium-genus plants as preservatives in the food and agri-food industries” (MOUSALA, S., L., priority 2004, published 2007)",
  "key": {"[1]": {"test_system": "Aspergillus niger, CECT 2700", "assay": "agar diffusion, inhibition halo", "assay_type": "cell-based", "summary_of_the_method": "(§1)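 Agar diffusion on 2% Sabouraud-glucose medium used 6 mm cellulose discs carrying the test doses. Reported halos include the disc diameter.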"}, "[2]": {"test_system": "Aspergillus terreus, isolated from the environment of the cheese maturation chamber", "assay": "agar diffusion, inhibition halo", "assay_type": "cell-based", "summary_of_the_method": "as §1"}, "[3]": {"test_system": "Candida krusei, isolated from cheese", "assay": "agar diffusion, inhibition halo", "assay_type": "cell-based", "summary_of_the_method": "as §1"}, "[4]": {"test_system": "Candida magnoliae, isolated from cheese", "assay": "agar diffusion, inhibition halo", "assay_type": "cell-based", "summary_of_the_method": "as §1"}, "[5]": {"test_system": "Candida parapsilosis, isolated from cheese", "assay": "agar diffusion, inhibition halo", "assay_type": "cell-based", "summary_of_the_method": "as §1"}, "[6]": {"test_system": "Penicillium sp, isolated from cheese", "assay": "agar diffusion, inhibition halo", "assay_type": "cell-based", "summary_of_the_method": "as §1"}, "[7]": {"test_system": "Saccharomyces cerevisiae, CECT 1324", "assay": "agar diffusion, inhibition halo", "assay_type": "cell-based", "summary_of_the_method": "as §1"}, "[8]": {"test_system": "Bacillus cereus, CECT 1178", "assay": "agar diffusion, inhibition halo", "assay_type": "cell-based", "summary_of_the_method": "(§2)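 Discs (6 mm) impregnated with test doses of active ingredient placed on Müller-Hinton agar inoculated with 10^6 cells/ml suspensions from young pure cultures. Plates incubated at each strain's appropriate temperature; inhibition halo diameter measured including the 6 mm disc.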"}, "[9]": {"test_system": "Bacillus megaterium, ATCC 33085", "assay": "agar diffusion, inhibition halo", "assay_type": "cell-based", "summary_of_the_method": "as §2"}, "[10]": {"test_system": "Escherichia coli, CECT 515", "assay": "agar diffusion, inhibition halo", "assay_type": "cell-based", "summary_of_the_method": "as §2"}, "[11]": {"test_system": "Listeria monocytogenes, ATCC 15313", "assay": "agar diffusion, inhibition halo", "assay_type": "cell-based", "summary_of_the_method": "as §2"}, "[12]": {"test_system": "Micrococcus luteus, isolated from a spiced sausage", "assay": "agar diffusion, inhibition halo", "assay_type": "cell-based", "summary_of_the_method": "as §2"}, "Total mesophilic aerobes": {"test_system": "Total mesophilic aerobes", "assay": "microbiological quality of treated hamburgers and fresh sausage: total mesophilic aerobe count", "description": "(§3) The tests were conducted on meat products such as hamburgers and fresh sausage at different doses, with and without the usual preservatives (sulfites).\n(§4) Each sample is prepared in quintuplicate and microbiological quality control over time is conducted, a triplicate of each sample being performed.\nThe method used to determine the number of germs per gram was the dish count number, starting from serial decimal dilutions of the sample and using the surface seeding technique.\nThe culture medium used was nutrient agar (Merck PCA) prepared on Petri dishes on which, from the serial decimal dilutions of the sample (from −1 . . . to −6 in Merck triptone soy broth or TSB), 0.1 mL of each one of the dilutions was transferred.\nDish incubation temperature was 31±1° C.\nThe final result is expressed as the total microorganism count per gram of sample (said count is performed in the dilutions in which between 30-300 colonies/dish are detected).\n(§5) Two different raw meat products (sausages and hamburgers) treated with different allicin doses are prepared. • The used testing doses were: 25, 50 and 100 ppm.\n(§6) Five samples of each product (hamburger and sausage) are prepared, each one of them being analyzed in triplicate.\n(§7) The microbiological parameters analyzed were as follows: • Total mesophilic aerobes • Coliforms • Escherichia coli • Salmonella (presence/absence in 25 g) • Said parameters were analyzed at different times: • 0 days • 4 days • 7 days • The sample references resulted as follows: […]"}, "Escherichia coli": {"test_system": "Escherichia coli", "assay": "microbiological quality of treated hamburgers and fresh sausage: Escherichia coli count", "description": "as §3, §4\nThe positive Brila Broth tubes obtained in the coliform study are used according to the following protocol:\nAll the tubes having gas production are subcultured again with an inoculation loop in tubes containing 10 mL of Brila Broth (with a Durham tube), being incubated at 44.5° C. for 24-48 hours.\nOnce the incubation has elapsed the existence of Escherichia coli is assumed in any tube with growth and with gas formation under the previously discussed conditions.\nEosine Methylene Blue (Merck EMB) was used as a selective confirmation medium, isolating on dishes containing EMB from all the positive tubes. The occurrence of colonies measuring 2-3 mm in diameter (planar or slightly concave), with dark almost black centers occupying ¾ of the colony which, with reflected light, sometimes show a greenish metallic glow, which are most likely Escherichia coli, the confirmation of which is done by means of the indole biochemistry test.\nWhen positive growth (gas) in Brila Broth at 44.5° C., indole production and characteristic growth on EMB agar coincide, the reading is done in the MPN table and the data is extrapolated.\nThe result is expressed as the number of\nEscherichia coli per gram of sample.\nas §5, §6, §7"}, "[13]": {"conditions": "hamburger, 25 ppm of allicin (H-1), t = 0 days"}, "[14]": {"conditions": "hamburger, 25 ppm of allicin (H-1), t = 4 days"}, "[15]": {"conditions": "hamburger, 50 ppm of allicin (H-2), t = 0 days"}, "[16]": {"conditions": "hamburger, 50 ppm of allicin (H-2), t = 4 days"}, "[17]": {"conditions": "hamburger, 100 ppm of allicin (H-3), t = 0 days"}, "[18]": {"conditions": "hamburger, 100 ppm of allicin (H-3), t = 4 days"}, "[19]": {"conditions": "sausage, 25 ppm of allicin (S-1), t = 0 days"}, "[20]": {"conditions": "sausage, 25 ppm of allicin (S-1), t = 4 days"}, "[21]": {"conditions": "sausage, 50 ppm of allicin (S-2), t = 0 days"}, "[22]": {"conditions": "sausage, 50 ppm of allicin (S-2), t = 4 days"}, "[23]": {"conditions": "sausage, 100 ppm of allicin (S-3), t = 0 days"}, "[24]": {"conditions": "sausage, 100 ppm of allicin (S-3), t = 4 days"}},
  "data": [
    {"smiles": "C=CCS[S+]([O-])CC=C", "note": "(stereo not drawn) [Allicin, allyl allylthiosulfinate]", "values": [
      {"measurement": "inhibition halo diameter", "setting": "[1]; 25 ppm", "result": 10, "unit": "mm"},
      {"measurement": "inhibition halo diameter", "setting": "[1]; 50 ppm", "result": 13, "unit": "mm"},
      {"measurement": "inhibition halo diameter", "setting": "[1]; 100 ppm", "result": 19, "unit": "mm"},
      {"measurement": "inhibition halo diameter", "setting": "[2]; 25 ppm", "result": 12, "unit": "mm"},
      {"measurement": "inhibition halo diameter", "setting": "[2]; 50 ppm", "result": 22, "unit": "mm"},
      {"measurement": "inhibition halo diameter", "setting": "[2]; 100 ppm", "result": 25, "unit": "mm"},
      {"measurement": "inhibition halo diameter", "setting": "[3]; 25 ppm", "result": 14, "unit": "mm"},
      {"measurement": "inhibition halo diameter", "setting": "[3]; 50 ppm", "result": 18, "unit": "mm"},
      {"measurement": "inhibition halo diameter", "setting": "[3]; 100 ppm", "result": 29, "unit": "mm"},
      {"measurement": "inhibition halo diameter", "setting": "[4]; 25 ppm", "result": 22, "unit": "mm"},
      {"measurement": "inhibition halo diameter", "setting": "[4]; 50 ppm", "result": 30, "unit": "mm"},
      {"measurement": "inhibition halo diameter", "setting": "[4]; 100 ppm", "result": 38, "unit": "mm"},
      {"measurement": "inhibition halo diameter", "setting": "[5]; 50 ppm", "result": 14, "unit": "mm"},
      {"measurement": "inhibition halo diameter", "setting": "[5]; 100 ppm", "result": 17, "unit": "mm"},
      {"measurement": "inhibition halo diameter", "setting": "[6]; 25 ppm", "result": 22, "unit": "mm"},
      {"measurement": "inhibition halo diameter", "setting": "[6]; 50 ppm", "result": 26, "unit": "mm"},
      {"measurement": "inhibition halo diameter", "setting": "[6]; 100 ppm", "result": 34, "unit": "mm"},
      {"measurement": "inhibition halo diameter", "setting": "[7]; 25 ppm", "result": 28, "unit": "mm"},
      {"measurement": "inhibition halo diameter", "setting": "[7]; 50 ppm", "result": 32, "unit": "mm"},
      {"measurement": "inhibition halo diameter", "setting": "[7]; 100 ppm", "result": 44, "unit": "mm"},
      {"measurement": "inhibition halo diameter", "setting": "[8]; 25 ppm", "result": 22, "unit": "mm"},
      {"measurement": "inhibition halo diameter", "setting": "[8]; 50 ppm", "result": 29, "unit": "mm"},
      {"measurement": "inhibition halo diameter", "setting": "[8]; 100 ppm", "result": 35, "unit": "mm"},
      {"measurement": "inhibition halo diameter", "setting": "[9]; 25 ppm", "result": 23, "unit": "mm"},
      {"measurement": "inhibition halo diameter", "setting": "[9]; 50 ppm", "result": 27, "unit": "mm"},
      {"measurement": "inhibition halo diameter", "setting": "[9]; 100 ppm", "result": 34, "unit": "mm"},
      {"measurement": "inhibition halo diameter", "setting": "[10]; 25 ppm", "result": 14, "unit": "mm"},
      {"measurement": "inhibition halo diameter", "setting": "[10]; 50 ppm", "result": 17, "unit": "mm"},
      {"measurement": "inhibition halo diameter", "setting": "[10]; 100 ppm", "result": 21, "unit": "mm"},
      {"measurement": "inhibition halo diameter", "setting": "[11]; 25 ppm", "result": 18, "unit": "mm"},
      {"measurement": "inhibition halo diameter", "setting": "[11]; 50 ppm", "result": 24, "unit": "mm"},
      {"measurement": "inhibition halo diameter", "setting": "[11]; 100 ppm", "result": 30, "unit": "mm"},
      {"measurement": "inhibition halo diameter", "setting": "[12]; 25 ppm", "result": 19, "unit": "mm"},
      {"measurement": "inhibition halo diameter", "setting": "[12]; 50 ppm", "result": 25, "unit": "mm"},
      {"measurement": "inhibition halo diameter", "setting": "[12]; 100 ppm", "result": 32, "unit": "mm"},
      {"measurement": "reduction of total mesophilic aerobes with respect to untreated controls", "setting": "Total mesophilic aerobes; allicin 100 ppm, all sausage samples and hamburgers, maintained from 0 to 4 days", "result": "reduction of one logarithmic unit"},
      {"measurement": "Total aerobes", "setting": "Total mesophilic aerobes; [13]", "result": "2.17 × 10^6 cfu/g"},
      {"measurement": "Total aerobes", "setting": "Total mesophilic aerobes; [14]", "result": "1.56 × 10^8 cfu/g"},
      {"measurement": "Total aerobes", "setting": "Total mesophilic aerobes; [15]", "result": "9.01 × 10^5 cfu/g"},
      {"measurement": "Total aerobes", "setting": "Total mesophilic aerobes; [16]", "result": "6.23 × 10^7 cfu/g"},
      {"measurement": "Total aerobes", "setting": "Total mesophilic aerobes; [17]", "result": "4.08 × 10^5 cfu/g"},
      {"measurement": "Total aerobes", "setting": "Total mesophilic aerobes; [18]", "result": "3.17 × 10^7 cfu/g"},
      {"measurement": "Total aerobes", "setting": "Total mesophilic aerobes; [19]", "result": "2.24 × 10^5 cfu/g"},
      {"measurement": "Total aerobes", "setting": "Total mesophilic aerobes; [20]", "result": "3.08 × 10^6 cfu/g"},
      {"measurement": "Total aerobes", "setting": "Total mesophilic aerobes; [21]", "result": "8.99 × 10^4 cfu/g"},
      {"measurement": "Total aerobes", "setting": "Total mesophilic aerobes; [22]", "result": "2.72 × 10^6 cfu/g"},
      {"measurement": "Total aerobes", "setting": "Total mesophilic aerobes; [23]", "result": "6.06 × 10^4 cfu/g"},
      {"measurement": "Total aerobes", "setting": "Total mesophilic aerobes; [24]", "result": "3.10 × 10^5 cfu/g"},
      {"measurement": "Escherichia coli", "setting": "Escherichia coli; [13]", "result": 23, "unit": "cfu/g"},
      {"measurement": "Escherichia coli", "setting": "Escherichia coli; [14]", "result": 150, "unit": "cfu/g"},
      {"measurement": "Escherichia coli", "setting": "Escherichia coli; [15]", "result": 23, "unit": "cfu/g"},
      {"measurement": "Escherichia coli", "setting": "Escherichia coli; [16]", "result": 150, "unit": "cfu/g"},
      {"measurement": "Escherichia coli", "setting": "Escherichia coli; [17]", "result": 23, "unit": "cfu/g"},
      {"measurement": "Escherichia coli", "setting": "Escherichia coli; [18]", "result": 43, "unit": "cfu/g"},
      {"measurement": "Escherichia coli", "setting": "Escherichia coli; [19]", "result": "<3", "unit": "cfu/g"},
      {"measurement": "Escherichia coli", "setting": "Escherichia coli; [20]", "result": 4, "unit": "cfu/g"},
      {"measurement": "Escherichia coli", "setting": "Escherichia coli; [21]", "result": "<3", "unit": "cfu/g"},
      {"measurement": "Escherichia coli", "setting": "Escherichia coli; [22]", "result": 4, "unit": "cfu/g"},
      {"measurement": "Escherichia coli", "setting": "Escherichia coli; [23]", "result": "<3", "unit": "cfu/g"},
      {"measurement": "Escherichia coli", "setting": "Escherichia coli; [24]", "result": "<3", "unit": "cfu/g"}
    ]}
  ]
}
